In ChEMBL document CHEMBL3286176, “Discovery and structure-activity relationship of novel 2,3-dihydrobenzofuran-7-carboxamide and 2,3-dihydrobenzofuran-3(2H)-one-7-carboxamide derivatives as poly(ADP-ribose)polymerase-1 inhibitors” (J Med Chem, 2014):

What was measured:
[1] = target: Poly [ADP-ribose] polymerase 1 (Homo sapiens, UniProt P09874); assay: Inhibition of PARP-1 (unknown origin) using biotinylated NAD+ as substrate after 60 mins by spectrophotometry
[2] = Cytotoxicity against chicken wild-type DT40 cells assessed as cell viability at 10 uM after 72 hrs by ATPlite assay; assay type: cell-based, Gallus gallus; settings: dt40, 72 h
[3] = Cytotoxicity against chicken PARP1-deficient DT40 cells assessed as cell viability at 10 uM after 72 hrs by ATPlite assay; assay type: cell-based, Gallus gallus; settings: dt40, 72 h
[4] = Cytotoxicity against chicken BRCA2-deficient DT40 cells assessed as cell viability after 72 hrs by ATPlite assay; assay type: cell-based, Gallus gallus

Poly [ADP-ribose] polymerase 1, sequence (P09874 whole entry): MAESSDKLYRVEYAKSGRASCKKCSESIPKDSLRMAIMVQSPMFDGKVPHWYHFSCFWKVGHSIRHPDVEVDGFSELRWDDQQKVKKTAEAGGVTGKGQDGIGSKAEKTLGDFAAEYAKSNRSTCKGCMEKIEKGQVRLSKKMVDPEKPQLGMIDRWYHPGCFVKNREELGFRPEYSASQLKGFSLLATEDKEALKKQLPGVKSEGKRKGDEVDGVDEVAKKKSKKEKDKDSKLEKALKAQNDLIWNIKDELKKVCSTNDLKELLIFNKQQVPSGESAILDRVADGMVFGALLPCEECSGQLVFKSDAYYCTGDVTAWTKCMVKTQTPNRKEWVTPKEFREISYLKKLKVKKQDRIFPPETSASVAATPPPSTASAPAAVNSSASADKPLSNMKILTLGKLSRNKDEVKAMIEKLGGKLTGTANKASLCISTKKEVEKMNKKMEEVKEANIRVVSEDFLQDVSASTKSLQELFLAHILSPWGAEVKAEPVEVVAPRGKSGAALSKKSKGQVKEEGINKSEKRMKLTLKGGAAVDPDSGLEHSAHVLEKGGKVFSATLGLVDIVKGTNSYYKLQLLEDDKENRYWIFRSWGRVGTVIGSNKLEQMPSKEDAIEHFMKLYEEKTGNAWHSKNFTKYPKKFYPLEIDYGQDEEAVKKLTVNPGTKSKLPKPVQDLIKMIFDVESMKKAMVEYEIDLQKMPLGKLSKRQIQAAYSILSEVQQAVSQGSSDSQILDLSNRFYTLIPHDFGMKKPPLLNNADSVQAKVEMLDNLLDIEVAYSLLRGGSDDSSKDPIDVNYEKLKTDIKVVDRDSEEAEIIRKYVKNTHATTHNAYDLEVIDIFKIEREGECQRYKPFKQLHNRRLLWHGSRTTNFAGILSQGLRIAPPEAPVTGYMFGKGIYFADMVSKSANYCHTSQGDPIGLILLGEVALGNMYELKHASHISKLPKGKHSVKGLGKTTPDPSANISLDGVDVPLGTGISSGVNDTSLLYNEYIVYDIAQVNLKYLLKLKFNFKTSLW

| Structure (SMILES) | IC50 [1] | also measured |
| --- | --- | --- |
| NC(=O)c1cccc2c1O/C(=C\c1ccc(O)cc1)C2=O | 813 nM |  |
| NC(=O)c1cccc2c1OCC2=O | 16200 nM |  |
| CN1CCN(CCOc2ccc(/C=C3\Oc4c(C(N)=O)cccc4C3=O)cc2)CC1 | 114 nM | Activity [2]: Toxic; Activity [3]: Toxic; IC90 at 72 h [4]: 5.2 µM |
| NC(=O)c1cccc2c1O/C(=C\c1cccc(OCCN3CCCCC3)c1)C2=O | > 10000 nM |  |
| NC(=O)c1cccc2c1O/C(=C\c1ccc(OCCN3CCCCC3)cc1)C2=O | 544 nM |  |
| NC(=O)c1cccc2c1O/C(=C\c1ccccc1O)C2=O | > 10000 nM |  |
| C[C@H]1Cc2cccc(C(N)=O)c2O1 | 8440 nM |  |
| COc1ccc(/C=C2\Oc3c(C(N)=O)cccc3C2=O)cc1 | 3300 nM |  |
| NC(=O)c1cccc2c1O/C(=C\c1cccc(OCCN3CCOCC3)c1)C2=O | > 10000 nM |  |
| NC(=O)c1cc(N)cc2c1OCC2 | > 25000 nM |  |
| NC(=O)c1cccc2c1O/C(=C\c1ccc(OCCN3CCOCC3)cc1)C2=O | 2070 nM |  |
| NC(=O)c1nn(CCCN2C(=O)C(=O)c3ccccc32)c2ccccc12 | 6800 nM |  |
| NC(=O)c1cc([N+](=O)[O-])cc2c1OCC2 | > 25000 nM |  |
| CC1Cc2cc(F)cc(C(N)=O)c2O1 (racemic) | 2450 nM |  |
| NC(=O)c1cccc2c1O/C(=C\c1ccc(OCCN3CCN(c4ccc(F)cc4)CC3)cc1)C2=O | 445 nM |  |
| NC(=O)c1cccc2c1O/C(=C\c1ccc(Cl)cc1)C2=O | 6090 nM |  |
| CC1Cc2cccc(C(N)=O)c2O1 (racemic) | 10400 nM |  |
| NC(=O)c1cc(Br)cc2c1OCC2 | > 25000 nM |  |
| NC(=O)c1cccc2c1O/C(=C\c1cc(O)ccc1O)C2=O | > 10000 nM |  |
| NC(=O)c1cc(F)cc2c1OCC2 | 2120 nM |  |
| CC1Cc2cc([N+](=O)[O-])cc(C(N)=O)c2O1 (stereo unspecified) | > 25000 nM |  |

| Structure (SMILES) | IC50 [1] | also measured |
| --- | --- | --- |
| C[C@]1(c2nc3c(C(N)=O)cccc3[nH]2)CCCN1 [VELIPARIB] |  | Activity [2]: Non-toxic; Activity [3]: Non-toxic |
| NC(=O)c1cccc2c1O/C(=C\c1ccc(OCC(=O)N3CCOCC3)cc1)C2=O | 223 nM |  |
| NC(=O)c1cccc2c1O/C(=C\c1cccc(Oc3ccccc3)c1)C2=O | 4650 nM |  |
| NC(=O)c1cccc2c1OCC2 | 9450 nM |  |
| NC(=O)c1cccc2c1O/C(=C\c1ccc(OCCCN3CCOCC3)cc1)C2=O | 718 nM |  |
| NC(=O)c1cccc2c1O/C(=C\c1ccc(OCC3CO3)cc1)C2=O (stereo unspecified) | 1210 nM |  |
| Cc1cc2c(c(C(N)=O)c1)OC(C)C2 (stereo unspecified) | > 25000 nM |  |
| C[C@@H]1Cc2cccc(C(N)=O)c2O1 | 6340 nM |  |
| NC(=O)c1cccc2c1O/C(=C\c1ccc(O)c(O)c1)C2=O | 531 nM |  |
| CN1CCN(CCCS(=O)(=O)Nc2ccc(/C=C3\Oc4c(C(N)=O)cccc4C3=O)cc2)CC1 | 113 nM |  |
| CC1Cc2c(N)ccc(C(N)=O)c2O1 (single isomer, unassigned; enantiomer 1) | 2430 nM |  |
| CC1Cc2c(N)ccc(C(N)=O)c2O1 (single isomer, unassigned) | 5330 nM |  |
| C[C@H]1Cc2cc(F)cc(C(N)=O)c2O1 | 3620 nM |  |
| NC(=O)c1cccc2c1O/C(=C\c1ccc(OCC(O)CN3CCOCC3)cc1)C2=O (stereo unspecified) | 176 nM |  |
| NC(=O)c1cccc2c1O/C(=C\c1cccc(O)c1)C2=O | 2140 nM |  |
| CC1Cc2cc(N)cc(C(N)=O)c2O1 (stereo unspecified) | > 25000 nM |  |
| CN1CCN(CCS(=O)(=O)Nc2ccc(/C=C3\Oc4c(C(N)=O)cccc4C3=O)cc2)CC1 | 79 nM |  |
| COc1cc(/C=C2\Oc3c(C(N)=O)cccc3C2=O)ccc1O | 3620 nM |  |
| NC(=O)c1cccc2c1O/C(=C\c1ccc(O)cc1O)C2=O | 753 nM |  |
| NC(=O)c1cccc2c1O/C(=C\c1cc(O)cc(O)c1)C2=O | > 10000 nM |  |
| C[C@@H]1Cc2cc(F)cc(C(N)=O)c2O1 | 1530 nM |  |
